We go through one compound from article PMC8226862, “Design, Synthesis and Anticancer Activity of a New Series of N-aryl-N′-[4-(pyridin-2-ylmethoxy)benzyl]urea Derivatives” (Molecules, 2021).

Data set [1] concerns HL7702 (human liver normal cell line). The experiment in a line: MTT cytotoxicity assay, HL7702. The format is cell-based. Conditions: L02, HL7702 normal liver cells, 96 h incubation. The procedure: (§1) The target compounds were evaluated for their antiproliferative activity against different human cancer cell lines, including A549 (non-small cell lung cancer cell line), MCF-7 (breast cancer cell line), HCT116 (colon cancer cell line), PC-3 (prostate cancer cell line) and HL7702 (human liver normal cell line) by using the MTT assay with sorafenib as the control drug.
(§2) The antiproliferative activities of target compounds were determined using a standard MTT assay. Exponentially growing cells A549 (1.5 × 10^3 cells/well), MCF-7 (2.2 × 10^3 cells/well), HCT-116 (800 cells/well), PC-3 (2.0 × 10^3 cells/well) and HL7702 (5.0 × 10^3 cells/well) were seeded into 96-well plates and incubated for 24 h to allow the cells to attach. Then, a fresh medium containing various concentrations of the candidate compounds was added to each well. The cells were then incubated for 96 h, thereafter MTT assays were performed, and cell viability was assessed at 570 nm by a microplate reader (ThermoFisher Scientific (Shanghai) Instrument Co., Ltd., Shanghai, China). The optical densities (OD) at 570 nm were measured, and the IC50 of the target compounds was calculated by using GraphPad Prism 5.0 software to perform nonlinear fitting with the cell survival rate under different concentrations of the compounds.
A general note: Formazan colour is commonly taken as a measure of viable cells.

The subject of data set [2] is PC-3 (prostate cancer cell line). The experiment in a line: MTT antiproliferative assay, PC3. The settings on record: 96 h incubation. The format is cell-based, human. As to the method:
as §1, §2

Data set [3] relates to MCF-7 (breast cancer cell line). Kind of data set: MTT antiproliferative assay, MCF7. The format is cell-based, human. Conditions: 96 h incubation. As to the method: as §1, §2
For data set [4], the system named is A549 (non-small cell lung cancer cell line). The experiment in a line: MTT antiproliferative assay, A549. The format is cell-based, human. Conditions: 96 h incubation. The procedure: as §1, §2
For data set [5], the system named is HCT116 (colon cancer cell line). Kind of data set: MTT antiproliferative assay, HCT116. The data set is classed as cell-based, human. Conditions: 96 h incubation. The procedure: as §1, §2
In the next data set the test system is MCF-7 cells. The experiment in a line: Cell cycle analysis by flow cytometry (PI staining). The data set is classed as cell-based, human. Conditions: for percentage of cells in the G2/M phase: 72 h. As to the method: The effect of compound 9b on the cell cycle was assayed.
[…] After an incubation period, the cells were collected, centrifuged, and fixed with ice-cold ethanol (70%). The cells were then treated with buffer containing RNAse A and 0.1% Triton X-100 and then stained with the propidium iodide (PI). The samples were analyzed on a flow cytometer (Becton, Dickinson, Franklin Lakes, NJ, USA). Data were analyzed using Flowjo software v9.0.
In general terms: Flow cytometry measures light scatter and fluorescence of single cells or particles in a stream.

In turn, `COc1cc(CN(C(=O)Nc2ccc(C(F)(F)F)cc2)C2CCN(C)CC2)ccc1OCc1nccc(OCC(F)(F)F)c1C` [9b, 1-(3-methoxy-4-((3-methyl-4-(2,2,2-trifluoroethoxy)pyridin-2-yl)methoxy)benzyl)-1-(1-methylpiperidin-4-yl)-3-(4-(trifluoromethyl)phenyl)urea] registered a melting point of 138.4 to 140.5 °C. For the same compound, the IC50 in data set [1] is over 50 µM. The compound also registered an IC50 in data set [2] of 3.36 ± 0.17 µM. The IC50 in data set [2] (Homo sapiens, 96 h) was under 5 µM. In addition, 2.56 ± 0.07 µM corresponded to half-maximal inhibition in data set [3] (IC50). The concentration for half-maximal inhibition (IC50) in data set [3] (Homo sapiens, MCF7, 96 h) was under 3 µM. In data set [4], this compound came in with an IC50 of 4.93 ± 0.46 µM. For the same compound, the IC50 in data set [4] (Homo sapiens, A549, 96 h) is under 5 µM. Moreover, the midpoint of inhibition in data set [5], the IC50, lay at 2.9 ± 0.16 µM. This compound also came in with an IC50 in data set [5] (Homo sapiens, HCT-116, 96 h) of under 3 µM. The “percentage of cells in the G2/M phase” value in the data set on MCF-7 cells (MCF-7, 2.5 μM) turned out to be 16.7%. Also, the “percentage of cells in the G2/M phase” value in the data set with MCF-7 cells (MCF-7, 5 μM) is 23.5%. Moreover, in the data set with MCF-7 cells (MCF-7, 10 μM), the “percentage of cells in the G2/M phase” value was determined as 27.7%. Also, in the data set with MCF-7 cells (MCF-7, 20 μM), the “percentage of cells in the G2/M phase” value is reported as 39.3%. Besides, the “effect on the cell cycle” value in the data set with MCF-7 cells (MCF-7, 2.5-20 μM, concentration-dependent) was “obvious G2/M arrest”.

What is called melting point is the temperature, or range, at which the solid turns liquid. As a reminder, the IC50 is the concentration that inhibits the measured activity by half. Read a high IC50 as a need for much substance.
